Activity data for three compounds are collected here from ChEMBL document CHEMBL1158799, “The transgenic Arabidopsis plant system, pER8-GFP, as a powerful tool in searching for natural product estrogen-agonists/antagonists” (J Nat Prod, 2005).

Calls of active or inactive are those of the source. No cut-off for these calls is given here.

The target in test [1] is T1, Estrogen receptor (Homo sapiens) (UniProt P03372).
T1 sequence (whole entry): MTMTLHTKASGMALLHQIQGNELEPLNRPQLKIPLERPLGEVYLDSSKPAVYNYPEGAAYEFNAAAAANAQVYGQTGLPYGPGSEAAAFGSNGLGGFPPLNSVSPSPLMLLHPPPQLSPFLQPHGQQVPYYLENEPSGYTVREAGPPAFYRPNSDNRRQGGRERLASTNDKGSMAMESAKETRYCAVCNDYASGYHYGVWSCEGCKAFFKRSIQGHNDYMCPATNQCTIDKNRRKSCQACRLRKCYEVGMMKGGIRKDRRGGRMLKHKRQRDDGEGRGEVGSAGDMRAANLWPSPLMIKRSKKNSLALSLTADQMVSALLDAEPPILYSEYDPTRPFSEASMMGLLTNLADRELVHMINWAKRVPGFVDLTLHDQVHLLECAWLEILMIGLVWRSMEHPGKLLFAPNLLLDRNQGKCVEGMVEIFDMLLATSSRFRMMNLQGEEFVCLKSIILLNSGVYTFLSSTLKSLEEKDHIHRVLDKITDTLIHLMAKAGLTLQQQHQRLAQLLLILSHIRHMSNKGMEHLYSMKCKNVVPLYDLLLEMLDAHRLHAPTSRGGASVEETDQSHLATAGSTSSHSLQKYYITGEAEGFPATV
The experiment in a line: Activity at human estrogen receptor expressed in transgenic Arabidopsis plant at >100 ug/mL by pER8-GFP reporter assay. (In general: A reporter such as luciferase makes a cellular process visible.)

The target in test [2] is T1, Estrogen receptor (Homo sapiens). The experiment in a line: Activity at human estrogen receptor expressed in transgenic Arabidopsis plant at >10 uM by pER8-GFP reporter assay.
Test [3] has the same target. The test is described as follows: Activity at human estrogen receptor expressed in transgenic Arabidopsis plant at >100 uM by pER8-GFP reporter assay.

With `O=c1c(-c2ccc(O)cc2)coc2c([C@@H]3O[C@H](CO)[C@@H](O)[C@H](O)[C@H]3O)c(O)ccc12`, the result in test [1] was Active.
For `C[C@]12CC[C@H]3[C@@H](CCC4=CC(=O)CC[C@@]43C)[C@@H]1CC[C@@H]2O`, the result in test [2] was Active.
Take `O=C1C=CC(O)(c2cc(=O)c3c(O)cc(O)cc3o2)C=C1`: the result in test [3] was Active.
